# Experimental data published in PMC5945843, “Direct neurotransmitter activation of voltage-gated potassium channels” (Nature Communications, 2018).
# “And” between values parts separate entries of the source, which are not always exact repeats. Identical values can stand only once. “Also recorded” adds a separate entry of the source. Like-named read-outs stand apart in the source and are kept apart here.
# Legend:
# [1] = target: heteromeric KCNQ2/3 channels (Homo sapiens, UniProt O43525+O43526); experiment: TEVC in Xenopus oocytes; type: cell-based; conditions: for EC50: at −60 mV; for effect of compound alone on KCNQ2/3 current: 100 µM
# Description: cRNA transcripts encoding human KCNQ1, KCNQ2, KCNQ3, KCNQ4, KCNQ5, KCNA1, or KCNE1 were generated by in vitro transcription using the T7 polymerase mMessage mMachine kit (Thermo Fisher Scientific), after vector linearization, from complementary DNA (cDNA) sub-cloned into plasmids incorporating Xenopus laevis β-globin 5′ and 3′ untranslated regions flanking the coding region to enhance translation and cRNA stability. cRNA was quantified by spectrophotometry. […] Defolliculated stage V and VI Xenopus laevis oocytes (Ecocyte Bioscience, Austin, TX) were injected with Kv channel α subunit cRNAs (5–10 ng).
# Oocytes were placed in a small-volume oocyte bath (Warner) and viewed with a dissection microscope. Chemicals were sourced from Sigma. Bath solution was (in mM): 96 NaCl, 4 KCl, 1 MgCl2, 1 CaCl2, 10 HEPES (pH 7.6). […] Valeric acid was stored as a 5 mM stock in Ringer’s solution at 4 °C and diluted to working concentrations each experimental day. β-hydroxybutyric acid was stored at 4 °C as a 480 mM stock in 100% ethanol and diluted to working concentrations each experimental day. All compounds were introduced to the recording bath via gravity perfusion at a constant flow of 1 ml per min for 3 min prior to recording. Pipettes were of 1–2 MΩ resistance when filled with 3 M KCl. Currents were recorded in response to pulses between −80 mV and +40 mV at 20 mV intervals, or a single pulse to +40 mV, from a holding potential of −80 mV, to yield current-voltage relationships, current magnitude, and for quantifying activation rate. Deactivation was recorded at −80 mV after a single activating pulse to +40 mV, from a holding potential of −80 mV. […] TEVC data analysis was performed with Clampfit (Molecular Devices) and Graphpad Prism software (GraphPad, San Diego, CA, USA); values are stated as mean ± SEM. Normalized tail currents were plotted versus prepulse voltage and fitted with a single Boltzmann function:1 g=(A1-A2)/1+expV1/2-V∕VS+A2, where g is the normalized tail conductance, A1 is the initial value at −∞, A2 is the final value at +∞, V1/2 is the half-maximal voltage of activation, and VS the slope factor. Activation and deactivation kinetics were fitted with single exponential functions.
# [2] = tested on: canonical GABAA receptors; design: method as in PMID 17717222; conditions: up to 5 mM BHB; cited from earlier work
# KCNQ3* = tested on: KCNQ3*; design: method as in PMID 26333338; conditions: read-out: EC50 (sensitivity previously reported); cited from earlier work
# [3] = tested on: native M-current in mouse DRG neurons; experiment: Perforated patch-clamp of dorsal root ganglion neurons; type: cell-based; conditions: XE991 10 µM in combination with GABA 100 µM
# Description: Adult male mice were purchased from Jackson Labs and then housed and used according to a protocol approved by the Institutional Animal Care and Use Committee of University of California, Irvine, and consistent with recommendations in the NIH Guide for the Care and Use of Laboratory Animals (8th edition, 2011). […]. DRG neurons were then cultured on poly-L-lysine and laminin-coated plastic coverslips in RPMI 1640 with 10% horse serum and 1% penicillin/streptomycin at 37 °C for 1–4 days before electrophysiological recordings were performed using perforated patch clamp. Amphotericin B (VWR, Radnor, PA) was dissolved in DMSO at 5 mg/ml (stock solution), then diluted to 150–200 µg/ml in intracellular solution and sonicated with a probe sonicator on ice for 5 s, kept at room temperature in the dark, and replaced every hour with a fresh solution from the stock. The working amphotericin solution was backfilled into borosilicate glass electrodes (3–5 MΩ) previously tip-filled to ~0.5 mm with intracellular solution lacking amphotericin B, immediately prior to sealing onto individual neurons. After whole-cell configuration was achieved and capacitance stabilized, whole-cell recordings were performed essentially as described in the prior paragraph, with the following differences: neurons were held at −20 mV to inactivate other channels before the test pulses; offline leak subtraction was performed.
# [4] = tested on: native M-current in PC12 cells; experiment: Whole-cell patch clamp of NGF-differentiated PC12 cells; type: cell-based, rat
# Description: CHO cells (ATCC) were seeded on poly-L-lysine-treated glass coverslips in 24-well plates and transfected the next day using 0.5 µg each of mouse KCNQ2 and KCNQ3 cDNA in a CMV vector per well in normal media (DMEM with 10% FBS and 1% penicillin/streptomycin). The transfection reagent used was TransIT-LT1 (Mirus Bio LLC, Madison, WI, USA) and cells were patched 48–72 h post transfection. […] Media was replenished every 3 days and cultures were split once a week. […] Cell culture plastic ware and reagents were purchased from VWR and Fisher Scientific unless otherwise stated.
# For both CHO cells and PC12 cells, currents were recorded in whole-cell mode at room temperature (22–25 °C) with 3–6 MΩ borosilicate glass electrodes backfilled with solution containing (in mM): 90 K acetate, 20 KCl, 40 HEPES, 3 MgCl2, 1 CaCl2, 3 EGTA-KOH, 2 MgATP; pH 7.2.
# The pClamp8 (Molecular Devices) software package was used for data acquisition and Clampfit was used for analysis, along with Graphpad Prism 7.0 (Graphpad).
# KCNQ4 = KCNQ4 (Homo sapiens, UniProt P56696); experiment: 3H-GABA radioligand binding in Xenopus oocytes; conditions: extracellularly applied, 100 nM
# KCNQ5 = KCNQ5 (Homo sapiens, UniProt Q9NR82); experiment: 3H-GABA radioligand binding in Xenopus oocytes; conditions: extracellularly applied, 100 nM
# KCNQ1 = KCNQ1 (Homo sapiens, UniProt P51787); experiment: 3H-GABA radioligand binding in Xenopus oocytes; conditions: extracellularly applied, 100 nM
# GABA receptors = tested on: GABA receptors; design: method as in PMID 25779225; conditions: cited from earlier work
# [5] = 100 µM compound with 10 µM GABA
# [6] = 10 µM XE991 + 100 µM picrotoxin + 10 µM CGP55845, recorded after the GABA condition
# [7] = Ctrl with 2 µg/ml Pertussis toxin, no GABA
# Sequence of heteromeric KCNQ2/3 channels (O43526 whole entry): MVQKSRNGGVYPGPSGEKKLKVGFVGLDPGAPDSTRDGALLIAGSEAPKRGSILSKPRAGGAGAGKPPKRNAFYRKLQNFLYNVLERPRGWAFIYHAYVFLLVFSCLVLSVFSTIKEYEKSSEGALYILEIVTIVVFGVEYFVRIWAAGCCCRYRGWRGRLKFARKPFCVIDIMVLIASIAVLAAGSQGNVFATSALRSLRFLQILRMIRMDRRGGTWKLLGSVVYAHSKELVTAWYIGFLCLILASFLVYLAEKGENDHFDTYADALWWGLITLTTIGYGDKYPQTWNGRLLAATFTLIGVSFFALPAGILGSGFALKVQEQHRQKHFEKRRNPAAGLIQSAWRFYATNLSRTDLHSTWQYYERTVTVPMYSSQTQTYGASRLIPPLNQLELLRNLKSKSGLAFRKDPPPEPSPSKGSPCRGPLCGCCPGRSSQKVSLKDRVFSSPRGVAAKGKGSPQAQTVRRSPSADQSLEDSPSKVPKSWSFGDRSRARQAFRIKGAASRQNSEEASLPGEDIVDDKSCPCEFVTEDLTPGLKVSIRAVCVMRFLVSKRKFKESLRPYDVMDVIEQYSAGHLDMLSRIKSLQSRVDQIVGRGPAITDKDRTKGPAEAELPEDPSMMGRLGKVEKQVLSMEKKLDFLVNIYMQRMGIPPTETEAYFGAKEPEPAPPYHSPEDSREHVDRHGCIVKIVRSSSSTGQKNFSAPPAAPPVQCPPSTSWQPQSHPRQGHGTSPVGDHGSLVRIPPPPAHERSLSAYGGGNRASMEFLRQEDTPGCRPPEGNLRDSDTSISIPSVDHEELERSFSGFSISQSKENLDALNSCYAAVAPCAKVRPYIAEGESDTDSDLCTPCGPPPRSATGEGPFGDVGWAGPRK
# Sequence of heteromeric KCNQ2/3 channels (O43525 whole entry): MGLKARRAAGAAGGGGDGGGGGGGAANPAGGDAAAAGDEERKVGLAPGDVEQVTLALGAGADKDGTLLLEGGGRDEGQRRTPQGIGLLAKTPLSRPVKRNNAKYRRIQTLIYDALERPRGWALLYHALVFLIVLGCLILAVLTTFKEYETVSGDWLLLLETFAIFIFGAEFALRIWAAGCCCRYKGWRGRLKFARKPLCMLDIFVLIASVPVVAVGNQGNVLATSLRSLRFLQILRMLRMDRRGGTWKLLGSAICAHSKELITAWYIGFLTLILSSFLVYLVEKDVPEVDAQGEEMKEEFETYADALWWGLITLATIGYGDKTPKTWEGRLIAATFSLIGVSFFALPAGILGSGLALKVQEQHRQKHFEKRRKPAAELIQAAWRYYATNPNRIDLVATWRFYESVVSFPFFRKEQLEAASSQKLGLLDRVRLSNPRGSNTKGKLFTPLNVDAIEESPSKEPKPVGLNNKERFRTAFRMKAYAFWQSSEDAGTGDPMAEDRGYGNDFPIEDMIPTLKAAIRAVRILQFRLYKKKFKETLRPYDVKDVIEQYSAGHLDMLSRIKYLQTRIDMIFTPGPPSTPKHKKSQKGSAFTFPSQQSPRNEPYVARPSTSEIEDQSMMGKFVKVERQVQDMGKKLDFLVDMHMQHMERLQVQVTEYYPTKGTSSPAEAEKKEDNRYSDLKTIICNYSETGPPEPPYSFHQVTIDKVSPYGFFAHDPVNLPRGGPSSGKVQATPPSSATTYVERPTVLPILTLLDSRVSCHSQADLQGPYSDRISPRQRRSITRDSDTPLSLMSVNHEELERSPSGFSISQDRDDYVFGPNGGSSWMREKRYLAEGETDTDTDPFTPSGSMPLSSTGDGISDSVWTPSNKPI
molecule,measurement,setting,value
"CC(=O)OCC[N+](C)(C)C [ACh, acetylcholine]",Slope,[1],4.8 ± 2.7 mV and 3.8 ± 6.5 mV and 5.1 ± 2.5 mV and 5.6 ± 2.7 mV and 5.1 ± 1.9 mV
same,concentration giving maximal effect,[1],≥ 1 µM
same,effect on KCNQ2/3 activity via endogenous mAChRs,[1],inhibited
"CC(O)CC(=O)O (stereo not drawn) [BHB, β-hydroxybutyric acid]",Slope,"[1]; 1 µM β-Hydrox, Ctrl 6.2 ± 0.8",5.9 ± 0.4 mV
same,Normalized tail current V0.5,"[1]; 1 µM β-Hydrox, Ctrl -36.1 ± 1.8",-46.1 ± 0.6 mV
same,Non-normalized tail current V0.5,"[1]; 1 µM β-Hydrox, Ctrl -36.4 ± 8.7",-43.9 ± 8.2 mV
same,Slope,"[1]; 10 µM β-Hydrox, Ctrl 6.2 ± 0.8",5.9 ± 0.4 mV
same,Normalized tail current V0.5,"[1]; 10 µM β-Hydrox, Ctrl -36.1 ± 1.8",-48.1 ± 0.4 mV
same,Non-normalized tail current V0.5,"[1]; 10 µM β-Hydrox, Ctrl -36.4 ± 8.7",-45.5 ± 7.9 mV
same,Slope,"[1]; 100 µM β-Hydrox, Ctrl 6.2 ± 0.8",5.9 ± 0.3 mV
same,Normalized tail current V0.5,"[1]; 100 µM β-Hydrox, Ctrl -36.1 ± 1.8",-50.2 ± 0.3 mV
same,Non-normalized tail current V0.5,"[1]; 100 µM β-Hydrox, Ctrl -36.4 ± 8.7",-46.0 ± 7.9 mV
same,Slope,"[1]; 1 mM β-Hydrox, Ctrl 6.2 ± 0.8",5.7 ± 0.6 mV
same,Normalized tail current V0.5,"[1]; 1 mM β-Hydrox, Ctrl -36.1 ± 1.8",-46.5 ± 0.9 mV
same,Non-normalized tail current V0.5,"[1]; 1 mM β-Hydrox, Ctrl -36.4 ± 8.7",-46.0 ± 7.4 mV
same,Slope,"[1]; 4 mM β-Hydrox, Ctrl 6.2 ± 0.8",4.9 ± 0.6 mV
same,Normalized tail current V0.5,"[1]; 4 mM β-Hydrox, Ctrl -36.1 ± 1.8",-44.9 ± 0.8 mV
same,Non-normalized tail current V0.5,"[1]; 4 mM β-Hydrox, Ctrl -36.4 ± 8.7",-44.7 ± 7.1 mV
same,EC50,[1],950 ± 130 nM
same,BHB sensitivity,[2],BHB-insensitive
"C[C@H](NC[C@H](O)CP(=O)(O)Cc1ccccc1)c1ccc(Cl)c(Cl)c1 [CGP55845, reference compound]",effect of compound alone on KCNQ2/3 current,[1],neither altered KCNQ2/3 currents alone
same,Slope,"[1]; 100 µM CGP, Ctrl 6.7 ± 0.3",6.6 ± 0.7 mV
same,Non-normalized tail current V0.5,"[1]; 100 µM CGP, Ctrl -44.9 ± 3.5",-45.6 ± 3.7 mV
same,Normalized tail current V0.5,"[1]; 100 µM CGP, Ctrl -45.1 ± 0.3",-47.1 ± 1.1 mV
same,effect on GABA activation of KCNQ2/3,[1]; [5],nor did it diminish GABA activation of KCNQ2/3
"NCC(O)CC(=O)O (stereo not drawn) [GABOB, γ-amino-β-hydroxybutyric acid]",agonist character compared to BHB and GABA,[1],lower efficacy partial agonist
same,effect on retigabine activation of KCNQ2/3,[1],reduces the efficacy
same,Slope,"[1]; 0.01 µM GABOB, Ctrl 10.3 ± 1.3",11.1 ± 1.8 mV
same,Non-normalized tail current V0.5,"[1]; 0.01 µM GABOB, Ctrl -43.8 ± 3.9",-42.7 ± 5.0 mV
same,Normalized tail current V0.5,"[1]; 0.01 µM GABOB, Ctrl -44.9 ± 1.5",-42.8 ± 2.0 mV
same,Slope,"[1]; 0.1 µM GABOB, Ctrl 10.3 ± 1.3",10.6 ± 1.6 mV
same,Non-normalized tail current V0.5,"[1]; 0.1 µM GABOB, Ctrl -43.8 ± 3.9",-45.8 ± 5.1 mV
same,Normalized tail current V0.5,"[1]; 0.1 µM GABOB, Ctrl -44.9 ± 1.5",-46.6 ± 1.9 mV
same,Slope,"[1]; 1 µM GABOB, Ctrl 10.3 ± 1.3",10.1 ± 1.2 mV
same,Non-normalized tail current V0.5,"[1]; 1 µM GABOB, Ctrl -43.8 ± 3.9",-46.4 ± 4.7 mV
same,Normalized tail current V0.5,"[1]; 1 µM GABOB, Ctrl -44.9 ± 1.5",-47.1 ± 1.4 mV
same,Slope,"[1]; 10 µM GABOB, Ctrl 10.3 ± 1.3",9.6 ± 0.9 mV
same,Non-normalized tail current V0.5,"[1]; 10 µM GABOB, Ctrl -43.8 ± 3.9",-46.8 ± 4.5 mV
same,Normalized tail current V0.5,"[1]; 10 µM GABOB, Ctrl -44.9 ± 1.5",-48.1 ± 1.2 mV
same,Slope,"[1]; 100 µM GABOB, Ctrl 10.3 ± 1.3",9.3 ± 0.8 mV
same,Non-normalized tail current V0.5,"[1]; 100 µM GABOB, Ctrl -43.8 ± 3.9",-46.3 ± 4.2 mV
same,Normalized tail current V0.5,"[1]; 100 µM GABOB, Ctrl -44.9 ± 1.5",-47.8 ± 0.9 mV
same,effect on GABA activation of KCNQ2/3,[1]; [5],diminished the KCNQ2/3-activating efficacy of GABA
same,Slope,"[1]; 1 mM GABOB, Ctrl 10.3 ± 1.3",9.2 ± 0.7 mV
same,Non-normalized tail current V0.5,"[1]; 1 mM GABOB, Ctrl -43.8 ± 3.9",-46.7 ± 4.0 mV
same,Normalized tail current V0.5,"[1]; 1 mM GABOB, Ctrl -44.9 ± 1.5",-48.0 ± 0.9 mV
same,lowering of retigabine efficacy,[1]; at -60 mV,almost fourfold
same,EC50,[1],100 ± 10 nM
Cc1cc(C)c(NC(=O)C2CC3CCC2C3)c(C)c1 (stereo not drawn) [ML-213],EC50,KCNQ3*,3600 nM
O=C1c2ccccc2C(Cc2ccncc2)(Cc2ccncc2)c2ccccc21 [XE991],inhibition of deactivating current at −60 mV,[3],> 50%
same,effect on GABA-augmented KCNQ2/3 current,[1]; XE991 50 µM,readily inhibited
same,Normalized tail current V0.5,[4]; [6],-4.9 ± 4.3 mV
same,Slope,[4]; [6],18.4 ± 2.2 mV
same,effect on GABA-dependent shift of tail currents,[4]; XE991 10 µM,removed the GABA-dependent negative-shift
[3H]C(CN)C([3H])C(=O)O (stereo not drawn) [^3H-GABA],3H-GABA binding,KCNQ4,bound
same,3H-GABA binding,KCNQ5,bound
same,3H-GABA binding,KCNQ1,did not
"NCC(CC(=O)O)c1ccc(Cl)cc1 (stereo not drawn) [baclofen, reference compound]",effect of compound alone on KCNQ2/3 current,[1],insensitive
same,Slope,"[1]; 100 µM Baclofen, Ctrl 9.3 ± 0.3",9.2 ± 0.5 mV
same,Non-normalized tail current V0.5,"[1]; 100 µM Baclofen, Ctrl -42.6 ± 2.3",-45.4 ± 2.5 mV
same,Normalized tail current V0.5,"[1]; 100 µM Baclofen, Ctrl -44.2 ± 0.4",-46.4 ± 0.6 mV
NCCc1ccc(O)c(O)c1 [dopamine],effect of compound alone on KCNQ2/3 current,[1],no effect
same,Slope,"[1]; 100 µM Dopamine, Ctrl 8.4 ± 1.5",7.2 ± 0.6 mV
same,Normalized tail current V0.5,"[1]; 100 µM Dopamine, Ctrl -40.8 ± 1.4",-41.9 ± 0.6 mV
same,Non-normalized tail current V0.5,"[1]; 100 µM Dopamine, Ctrl -41.6 ± 5.3",-41.8 ± 3.6 mV
CCOC(=O)Nc1ccc(NCc2ccc(F)cc2)cc1N [retigabine],EC50,KCNQ3*,11600 nM
same,action on GABA receptors,GABA receptors,weak activator
"NCC(CS(=O)(=O)O)c1ccc(Cl)cc1 (stereo not drawn) [saclofen, reference compound]",effect on GABA activation of KCNQ2/3,[1],nor did it diminish GABA activation of KCNQ2/3
same,effect of compound alone on KCNQ2/3 current,[1],neither altered KCNQ2/3 currents alone
same,Slope,"[1]; 100 µM Saclofen, Ctrl 5.6 ± 1.1",5.5 ± 0.8 mV
same,Non-normalized tail current V0.5,"[1]; 100 µM Saclofen, Ctrl -41.1 ± 6.7",-42.8 ± 6.6 mV
same,Normalized tail current V0.5,"[1]; 100 µM Saclofen, Ctrl -42.3 ± 0.8",-42.6 ± 0.8 mV
"CCCCC(=O)O [valeric acid, reference compound]",Slope,"[1]; 500 µM Valeric acid, Ctrl 9.1 ± 0.5",8.5 ± 0.6 mV
same,Normalized tail current V0.5,"[1]; 500 µM Valeric acid, Ctrl -44.2 ± 0.6",-45.1 ± 0.6 mV
same,Non-normalized tail current V0.5,"[1]; 500 µM Valeric acid, Ctrl -44.5 ± 5.4",-45.6 ± 4.9 mV
same,Slope,"[1]; 500 mM Valeric acid, Ctrl 9.1 ± 0.5",8.5 ± 0.6 mV
same,Normalized tail current V0.5,"[1]; 500 mM Valeric acid, Ctrl -44.2 ± 0.6",-45.1 ± 0.6 mV
same,Non-normalized tail current V0.5,"[1]; 500 mM Valeric acid, Ctrl -44.5 ± 5.4",-45.9 ± 4.9 mV
same,activity on KCNQ2/3,[1]; up to 5 mM,inactive; also recorded: no effects
Pertussis toxin,Non-normalized tail current V0.5,[1]; [7],-41.9 ± 6.3 mV
same,Normalized tail current V0.5,[1]; [7],-40.9 ± 1.4 mV
same,Slope,[1]; [7],8.8 ± 1.4 mV
picrotoxin,Slope,"[4]; 100 µM picrotoxin + 10 µM CGP55845, Ctrl (extracellular solution only) 20.3 ± 4.5",17.4 ± 3.0 mV
same,Normalized tail current V0.5,"[4]; 100 µM picrotoxin + 10 µM CGP55845, Ctrl (extracellular solution only) -9.2 ± 4.9",-7.1 ± 7.6 mV
